Tests used:
[1] = dihydropyridine-based compound alone, well known; cited from earlier work
[2] = tested on: rat, Wistar outbred; assay: Example AA: 14-day oral (diet) dose-range toxicity study; format: in vivo; settings: via the diet, 14 consecutive days
Excerpt: The aim of this study is to select appropriate dose-levels for the main study.
Materials and Methods: • Groups: one control group and four test groups (4 males and 4 female per group) administered with different dose levels of the test substance; • Housing: 2 rats/sex/cage, macrolon cages; • Species: rat, Wistar outbred, Charles River Wiga GmbH, 9-10 weeks of age at start; • Carrier: Commercial rodent diet (Rat & Mouse No. 3 Breeding diet, RM3), ad libitum; • Treatment: Administration via the diet during 14 consecutive days; one batch of test diets is prepared shortly before initiation of treatment and stored in a freezer/refrigerator; the feed in the animal feeders is refreshed twice per week; • Clinical observations: general observations (all rats): daily; morbidity is checked again in the afternoon; • Body weight: at least once pretest, twice per week from the start of treatment (for the last time, on the day of scheduled necropsy); • Food consumption: twice weekly per cage (2 rats/cage) from the start of treatment; • Water consumption: visual inspection of the drinking bottles; • Pathology: • macroscopic examination (all rats); • weighing the following organs of all the surviving rats: kidneys, liver, spleen, testes, thymus; • preservation: the weighed organs are preserved in formalin and discarded when the results of the subsequent 90-day study indicate non need for microscopy on tissues from the 14-day study;
(§1) On each day of analysis, calibration solutions are prepared by spiking rodent diet with a stock solution of the organotin compound followed by derivatisation with sodium tetraethyl borate, in order to derivatise the octyltin compounds to the corresponding octyltin-ethyl compounds, with simultaneous extraction of the derivatised compounds into hexane.
(§2) The concentration of the test substance in diet is then determined by GC-MS of the hexane extracts.

[3] = tested on: wistar rats; assay: Example AB: reproduction/developmental toxicity screening test (OECD 421); format: in vivo, rat
Excerpt: The objective of this study is to assess whether octyltin tris (2-ethylexylmercaptoacetate) causes adverse effects on reproduction and/or development of wistar rats. This study was preceded by a dose-range finding study (see Example AA).
Materials and Methods: • Groups: one control group and three test groups (12 males and 12 female per group) administered with different dose levels of the test substance; • Housing: Pre-mating (PM): 4 rats/sex/cage, macrolon cages; • Mating (M): 1 male and 1 female per cage; • Gestation (G) and lactation: 1 rat/sex/cage, macrolon cages; • Species: rat, Wistar outbred, Charles River Wiga GmbH, 9-10 weeks of age at start; • Carrier: Commercial rodent diet (Rat & Mouse No. 3 Breeding diet, RM3), ad libitum; • Treatment: Administration via the diet during 14 consecutive days premating; during 14 consecutive days mating, gestation and lactation up to 4 days (males are given the test substance in the diet until sacrifice at the end of the mating period); • one or two batches of test diets are prepared shortly before initiation of treatment and stored in a freezer/refrigerator; the feed in the animal feeders is refreshed once per week; • Clinical observations: general clinical observations (all rats): daily; morbidity is checked again in the afternoon; • Body weight: at least once pretest, males and females, premating and mating weekly; • Food consumption: males and females, premating and mating weekly; for female during gestation: GD 0, 7, 14 and 21 during lactation; PN 1 and 4; • Pups: sex, body, weight, number of live and dead pups, clinical signs PN 1 and 4; • Water consumption: visual inspection of the drinking bottles; • Pathology: • macroscopic examination (all rats); • count: number of implantations (uterus) and corpora lutea (ovaria); • weighing the following organs of all the surviving rats: testes (males), epididymes […], thymus; • preservation all animals): testes, epididymes, seminal vesicles, prostate, ovaries, uterus, thymus and organs and tissues showing macroscopic abnormalities; the organs are preserved in formalin and discarded when the results of the OECD 421 study indicate non need for microscopy; • Histopathology: preserved tissues for control and high level only […].
as §1, §2

[4] = rat, 200, 500 and 1250 mg/kg diet

SMILES: CCCCCCCCCCCCOC(=O)C1=C(C)NC(C)=C(C(=O)OCCCCCCCCCCCC)C1 [DHP, dihydro-1,4-dimethyl-2,6-dicarbododecyloxy-3,5-pyridine]
- result in dynamic thermal stability (colour) test [1]: poor results

SMILES: CCCCCCC[CH2][Sn]([S]CC(=O)OCC(CC)CCCC)([S]CC(=O)OCC(CC)CCCC)[S]CC(=O)OCC(CC)CCCC (centres unmarked) [octyltin tris (2-ethylexylmercaptoacetate)]
- abnormalities at necropsy [2]: no abnormalities were observed at necropsy
- change in body weight and food consumption [2]: no change in body weight and food consumption
- clinical abnormalities [2]: no clinical abnormalities were observed
- effects on organ weights [2]: no effects were observed on organ weights
- NOAEL expressed per body weight ([3]; female animals): ~96 mg/kg body weight/day
- NOAEL expressed per body weight ([3]; male animals): approximately 72 mg/kg body weight/day
- effects on pre- and post-natal development [3, 4]: No effects were observed
- effects on reproduction organs [3, 4]: No effects were observed
- tolerability of oral administration [3, 4]: well tolerated at all dose-levels
- no averse effect level (NOAEL) for parental toxicity, fertility and development ([3]; rat, oral via the diet): 1250 mg/kg diet
